In one experiment the target is T1, Leucine aminopeptidase (Plasmodium falciparum 3D7, UniProt Q8IL11).
T1 sequence (Q8IL11 whole entry): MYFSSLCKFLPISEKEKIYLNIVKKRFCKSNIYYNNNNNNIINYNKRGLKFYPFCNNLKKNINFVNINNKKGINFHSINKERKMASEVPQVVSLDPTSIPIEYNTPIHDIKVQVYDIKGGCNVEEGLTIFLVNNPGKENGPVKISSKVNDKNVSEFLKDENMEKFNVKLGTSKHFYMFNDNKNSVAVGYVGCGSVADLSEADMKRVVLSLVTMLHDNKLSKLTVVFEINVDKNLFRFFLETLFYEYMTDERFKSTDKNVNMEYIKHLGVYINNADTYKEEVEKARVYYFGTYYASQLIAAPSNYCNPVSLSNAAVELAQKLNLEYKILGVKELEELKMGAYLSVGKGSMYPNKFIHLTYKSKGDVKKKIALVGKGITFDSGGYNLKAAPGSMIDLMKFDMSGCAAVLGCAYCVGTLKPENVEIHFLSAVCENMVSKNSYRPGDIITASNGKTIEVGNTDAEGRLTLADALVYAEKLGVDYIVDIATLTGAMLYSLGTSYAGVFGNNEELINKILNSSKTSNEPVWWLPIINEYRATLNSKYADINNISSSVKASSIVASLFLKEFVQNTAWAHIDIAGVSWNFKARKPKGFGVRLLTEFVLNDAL
In words: P. falciparum M17LAP inhibitors, primary screen, biochemical, fluorogenic H-Leu-NHMec substrate, 1536-well (AID 1619). The experiment is classed as functional.

Experiment [1] in a line: Luminescence-based counterscreen assay for KLF5 inhibitors: dose response cell-based high throughput screening assay to identify cytotoxic compounds using the IEC-6 intestinal epithelial cell line. [Related pubchem assays: 1700 (Primary screen.), 1834 (Confirmation screen.), 1858 (Summary AID.), 1905 (Counterscreen.)]. It counts as functional. A general note: Counterscreens check selectivity or assay interference.

Experiment [2] can be described thus: Luminescence Cell-Based Dose Response HTS to Identify Inhibitors of 5'UTR Stem-Loop Driven Prion Protein mRNA Translation in H4 Neuroglioblastoma Cells. [Related pubchem assays: 1827 (Project Summary), 1813 (Primary HTS)]. It counts as functional.
A short description of experiment [3]: HEK-293T viability loss after treatment – luminescence, T-cell screen hits, cytotoxicity control for TCR NF-kB inhibitor project, dose response (AID 489026).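 Also: cells exposed to compound about 14 hours before the viability readout.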 The experiment is classed as functional, cell-based.
A short description of experiment [4]: alpha-synuclein stem-loop luciferase translation blockers – H4 neuroglioma cells, luminescence, confirmation (AID 1988). It counts as functional, cell-based.
Experiment [5] can be described thus: luciferase reporter signal suppression in cells – H4 neuroglioma cells, luminescence, dose response (AID 1990). The experiment is classed as functional, cell-based. On the technique in general: A reporter such as luciferase makes a cellular process visible.
Experiment [6] addresses Luciferin 4-monooxygenase (Photinus pyralis, UniProt P08659). The experiment in a line: inhibition of purified Photinus pyralis luciferase – biochemical, luminescence, dose response (AID 1891).
Experiment [7] is described as follows: Luminescence Cell-Based Dose Confirmation HTS to Identify Inhibitors of Platelet Dense Granule Release. [Related pubchem assays: 1663 (Primary HTS), 1678 (Summary of Project)]. It counts as functional.
The target in experiment [8] is Peroxisome proliferator-activated receptor gamma/Nuclear receptor coactivator 2 (Homo sapiens, UniProt P37231). It counts as functional.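 Also: agonist potency for raising coactivator recruitment to the receptor.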
The target of experiment [9] is Peroxisome proliferator-activated receptor gamma/Nuclear receptor coactivator 3 (Homo sapiens, UniProt P37231). The experiment is classed as functional.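 Also: agonist potency for raising coactivator recruitment to the receptor.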
Peroxisome proliferator-activated receptor gamma/Nuclear receptor coactivator 3, sequence (P37231 whole entry): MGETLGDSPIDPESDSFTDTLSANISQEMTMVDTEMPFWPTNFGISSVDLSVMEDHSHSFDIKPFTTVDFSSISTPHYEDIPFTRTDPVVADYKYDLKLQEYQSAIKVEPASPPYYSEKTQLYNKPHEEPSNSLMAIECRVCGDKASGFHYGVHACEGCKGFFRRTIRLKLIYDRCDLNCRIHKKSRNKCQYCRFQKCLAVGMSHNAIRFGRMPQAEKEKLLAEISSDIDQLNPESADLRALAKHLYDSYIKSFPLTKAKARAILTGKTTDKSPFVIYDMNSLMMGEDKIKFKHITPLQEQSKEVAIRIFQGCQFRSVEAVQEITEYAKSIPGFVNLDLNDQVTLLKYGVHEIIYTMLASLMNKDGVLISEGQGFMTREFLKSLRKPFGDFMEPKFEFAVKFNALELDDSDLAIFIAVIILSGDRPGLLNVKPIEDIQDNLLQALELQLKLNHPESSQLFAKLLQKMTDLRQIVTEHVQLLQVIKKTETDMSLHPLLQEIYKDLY
Peroxisome proliferator-activated receptor gamma/Nuclear receptor coactivator 3, sequence (Q9Y6Q9 whole entry, further chain): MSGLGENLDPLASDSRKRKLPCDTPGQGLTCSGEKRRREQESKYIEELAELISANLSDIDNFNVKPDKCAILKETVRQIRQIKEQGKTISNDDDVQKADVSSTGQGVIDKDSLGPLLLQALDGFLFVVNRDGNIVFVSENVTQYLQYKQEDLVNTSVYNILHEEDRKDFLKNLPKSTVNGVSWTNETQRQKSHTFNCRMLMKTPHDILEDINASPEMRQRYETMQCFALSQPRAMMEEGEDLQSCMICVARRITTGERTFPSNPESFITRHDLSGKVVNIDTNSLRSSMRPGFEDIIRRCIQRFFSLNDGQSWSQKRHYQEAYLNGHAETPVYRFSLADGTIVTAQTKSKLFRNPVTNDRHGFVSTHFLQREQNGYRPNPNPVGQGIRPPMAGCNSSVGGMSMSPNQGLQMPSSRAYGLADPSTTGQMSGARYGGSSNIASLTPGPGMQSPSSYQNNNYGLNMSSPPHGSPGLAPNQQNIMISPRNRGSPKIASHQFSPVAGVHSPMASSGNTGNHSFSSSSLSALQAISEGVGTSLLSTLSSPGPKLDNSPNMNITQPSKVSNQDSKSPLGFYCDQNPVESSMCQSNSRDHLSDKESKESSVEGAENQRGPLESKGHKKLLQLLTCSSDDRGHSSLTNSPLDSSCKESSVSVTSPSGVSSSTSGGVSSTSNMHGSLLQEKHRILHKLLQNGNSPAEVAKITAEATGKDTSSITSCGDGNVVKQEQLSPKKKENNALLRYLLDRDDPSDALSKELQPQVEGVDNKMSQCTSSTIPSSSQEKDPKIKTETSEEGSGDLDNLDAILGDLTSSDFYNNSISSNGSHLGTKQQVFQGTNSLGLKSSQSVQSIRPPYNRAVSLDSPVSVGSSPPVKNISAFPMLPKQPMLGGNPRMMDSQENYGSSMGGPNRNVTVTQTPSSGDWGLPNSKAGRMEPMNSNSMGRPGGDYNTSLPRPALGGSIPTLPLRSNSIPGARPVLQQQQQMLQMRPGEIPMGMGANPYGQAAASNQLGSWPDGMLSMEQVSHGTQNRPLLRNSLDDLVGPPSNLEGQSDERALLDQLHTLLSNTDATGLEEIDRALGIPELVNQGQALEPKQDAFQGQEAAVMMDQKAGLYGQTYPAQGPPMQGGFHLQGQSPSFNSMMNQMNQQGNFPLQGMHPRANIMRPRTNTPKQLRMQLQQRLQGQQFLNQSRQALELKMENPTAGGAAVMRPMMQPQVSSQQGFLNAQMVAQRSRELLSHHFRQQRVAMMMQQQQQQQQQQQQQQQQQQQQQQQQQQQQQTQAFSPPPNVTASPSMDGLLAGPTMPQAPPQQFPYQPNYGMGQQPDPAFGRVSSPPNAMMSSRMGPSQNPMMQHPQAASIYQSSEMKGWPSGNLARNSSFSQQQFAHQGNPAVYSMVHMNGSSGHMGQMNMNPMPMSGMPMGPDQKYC
Experiment [10] concerns the target Peroxisome proliferator-activated receptor gamma/Nuclear receptor coactivator 1 (Homo sapiens, UniProt P37231). The experiment is classed as functional.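 Also: agonist potency as compounds enhance coactivator SRC-1 recruitment to PPARgamma.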
Experiment [11] can be described thus: viability loss of HPDE-C7K cells – cell-based, fluorescence, HTS, primary screen (AID 431). It counts as functional. The conditions noted are these: Homo sapiens.
The nature of experiment [12]: HPDE-C7 pancreatic duct cell viability loss – fluorescence, HTS (AID 430). It counts as functional, cell-based. As to conditions: Homo sapiens.
Experiment [13] in a line: viability of uninfected HEp-2 cells – cell-based, HTS, cytotoxicity control for RSV inhibitor project, dose response (AID 2410). It counts as functional. As to conditions: human respiratory syncytial virus.
A further experiment deals with T2, Protein RecA (Mycobacterium tuberculosis, UniProt P9WHJ3).
T2 sequence (P9WHJ3 whole entry): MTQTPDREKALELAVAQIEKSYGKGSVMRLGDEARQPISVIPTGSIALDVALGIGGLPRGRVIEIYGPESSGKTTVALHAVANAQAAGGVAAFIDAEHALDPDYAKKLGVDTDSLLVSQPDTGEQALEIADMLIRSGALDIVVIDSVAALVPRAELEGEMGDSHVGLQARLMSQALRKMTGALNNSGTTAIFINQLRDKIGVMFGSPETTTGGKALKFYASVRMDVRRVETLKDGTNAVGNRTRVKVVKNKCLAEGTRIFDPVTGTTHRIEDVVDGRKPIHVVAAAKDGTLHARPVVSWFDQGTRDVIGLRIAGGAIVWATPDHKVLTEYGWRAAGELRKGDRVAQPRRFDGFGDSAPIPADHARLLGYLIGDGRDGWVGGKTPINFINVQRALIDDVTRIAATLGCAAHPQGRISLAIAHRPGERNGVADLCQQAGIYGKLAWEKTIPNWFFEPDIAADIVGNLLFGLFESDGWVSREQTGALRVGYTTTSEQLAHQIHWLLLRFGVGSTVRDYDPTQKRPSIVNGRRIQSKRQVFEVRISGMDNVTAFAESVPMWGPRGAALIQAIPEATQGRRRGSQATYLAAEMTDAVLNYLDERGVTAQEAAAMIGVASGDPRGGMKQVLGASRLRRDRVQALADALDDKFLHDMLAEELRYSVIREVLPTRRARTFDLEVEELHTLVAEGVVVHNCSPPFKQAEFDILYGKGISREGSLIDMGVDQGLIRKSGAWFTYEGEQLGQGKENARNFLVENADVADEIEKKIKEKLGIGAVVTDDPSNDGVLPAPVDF
In words: Fluorescence Cell-Free Homogeneous Dose Retest to Identify Inhibitors of RecA-Intein Splicing Activity. [Related pubchem assays (depositor defined):AID2097, AID2223, AID489010, AID492950]. It counts as functional.

In experiment [14] the target is T3, Replicative DNA helicase DnaB (Mycobacterium tuberculosis, UniProt P9WMR3).
T3 sequence (P9WMR3 whole entry): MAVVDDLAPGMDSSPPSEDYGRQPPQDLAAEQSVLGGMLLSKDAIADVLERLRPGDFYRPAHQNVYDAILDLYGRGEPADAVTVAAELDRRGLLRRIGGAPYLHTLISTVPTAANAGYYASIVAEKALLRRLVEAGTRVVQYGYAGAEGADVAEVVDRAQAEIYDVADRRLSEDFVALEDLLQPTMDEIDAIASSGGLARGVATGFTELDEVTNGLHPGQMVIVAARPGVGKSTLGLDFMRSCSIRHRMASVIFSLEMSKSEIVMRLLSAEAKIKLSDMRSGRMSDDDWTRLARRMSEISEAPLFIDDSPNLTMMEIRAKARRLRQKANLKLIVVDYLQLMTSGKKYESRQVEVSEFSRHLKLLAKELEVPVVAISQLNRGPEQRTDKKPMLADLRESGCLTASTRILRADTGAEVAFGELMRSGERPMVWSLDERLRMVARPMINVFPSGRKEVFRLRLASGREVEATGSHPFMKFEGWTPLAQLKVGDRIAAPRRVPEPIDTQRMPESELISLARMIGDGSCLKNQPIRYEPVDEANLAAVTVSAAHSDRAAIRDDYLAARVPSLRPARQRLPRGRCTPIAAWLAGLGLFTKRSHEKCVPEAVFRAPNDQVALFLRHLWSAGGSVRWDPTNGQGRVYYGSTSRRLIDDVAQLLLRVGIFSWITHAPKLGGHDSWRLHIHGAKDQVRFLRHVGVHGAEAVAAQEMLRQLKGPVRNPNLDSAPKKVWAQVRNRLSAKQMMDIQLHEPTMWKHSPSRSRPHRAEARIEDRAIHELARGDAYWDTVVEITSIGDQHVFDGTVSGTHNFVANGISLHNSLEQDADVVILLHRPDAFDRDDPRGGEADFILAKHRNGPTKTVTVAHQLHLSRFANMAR
The experiment in a line: DnaB intein splicing inhibitors, dose response, biochemical, cell-free fluorescence (AID 449749). It counts as functional.

Experiment [15] in a line: Luminescence Cell-Based Dose Response HTS to Identify Activators of Luciferase Translation or Activity in H4 […] Cells. [Related pubchem assays: 1829 (Project Summary), 1814 (Primary HTS)]. It counts as functional.
Experiment [16] in a line: Luminescence Cell-Based Dose Response to Identify Activators of Luciferase Translation or Activity in H4-C Neuroglioblastoma Cells. [Related pubchem assays: 1829 (Project Summary), 1814 (Primary HTS)]. The experiment is classed as functional.
A short description of experiment [17]: Luminescence Cell-Based Dose Confirmation HTS to Identify Activators of 5'UTR Stem-Loop Driven Alpha-Synuclein mRNA Translation in H4 Neuroglioblastoma Cells. [Related pubchem assays: 1829 (Project Summary), 1814 (Primary HTS)]. The experiment is classed as functional.
Experiment [18] can be described thus: Luminescence Cell-Based Dose Response to Identify Activators of 5'UTR Stem-Loop Driven Prion Protein mRNA Translation in H4-C Neuroglioblastoma Cells. [Related pubchem assays: 1829 (Project Summary), 1814 (Primary HTS)]. The experiment is classed as functional.
The next experiment has as its system H4. The experiment in a line: Luminescence Cell-Based Dose Response HTS to Identify Activators of 5'UTR Stem-Loop Driven Prion Protein mRNA Translation in H4 Neuroglioblastoma Cells. [Related pubchem assays: 1829 (Project Summary), 1814 (Primary HTS)]. The experiment is classed as functional. As to conditions: Homo sapiens.
Experiment [19] in a line: Luminescence Cell-Based Dose Confirmation to Identify Activators of 5'UTR Stem-Loop Driven Alpha-Synuclein mRNA Translation in H4 Neuroglioblastoma Cells. [Related pubchem assays: 1829 (Project Summary), 1814 (Primary HTS)]. It counts as functional.
The nature of a further experiment: cells. The experiment is classed as functional.

SMILES strings stand for the structures. Calls of active or inactive are those of the source. Rule as the data show it, for most assays here: actives have a measured EC50 and inactives only a lower limit.

Peroxisome proliferator-activated receptor gamma/Nuclear receptor coactivator 1, sequence (P37231 whole entry): as the sequence (P37231 whole entry) above
Peroxisome proliferator-activated receptor gamma/Nuclear receptor coactivator 1, sequence (Q15788 whole entry, further chain): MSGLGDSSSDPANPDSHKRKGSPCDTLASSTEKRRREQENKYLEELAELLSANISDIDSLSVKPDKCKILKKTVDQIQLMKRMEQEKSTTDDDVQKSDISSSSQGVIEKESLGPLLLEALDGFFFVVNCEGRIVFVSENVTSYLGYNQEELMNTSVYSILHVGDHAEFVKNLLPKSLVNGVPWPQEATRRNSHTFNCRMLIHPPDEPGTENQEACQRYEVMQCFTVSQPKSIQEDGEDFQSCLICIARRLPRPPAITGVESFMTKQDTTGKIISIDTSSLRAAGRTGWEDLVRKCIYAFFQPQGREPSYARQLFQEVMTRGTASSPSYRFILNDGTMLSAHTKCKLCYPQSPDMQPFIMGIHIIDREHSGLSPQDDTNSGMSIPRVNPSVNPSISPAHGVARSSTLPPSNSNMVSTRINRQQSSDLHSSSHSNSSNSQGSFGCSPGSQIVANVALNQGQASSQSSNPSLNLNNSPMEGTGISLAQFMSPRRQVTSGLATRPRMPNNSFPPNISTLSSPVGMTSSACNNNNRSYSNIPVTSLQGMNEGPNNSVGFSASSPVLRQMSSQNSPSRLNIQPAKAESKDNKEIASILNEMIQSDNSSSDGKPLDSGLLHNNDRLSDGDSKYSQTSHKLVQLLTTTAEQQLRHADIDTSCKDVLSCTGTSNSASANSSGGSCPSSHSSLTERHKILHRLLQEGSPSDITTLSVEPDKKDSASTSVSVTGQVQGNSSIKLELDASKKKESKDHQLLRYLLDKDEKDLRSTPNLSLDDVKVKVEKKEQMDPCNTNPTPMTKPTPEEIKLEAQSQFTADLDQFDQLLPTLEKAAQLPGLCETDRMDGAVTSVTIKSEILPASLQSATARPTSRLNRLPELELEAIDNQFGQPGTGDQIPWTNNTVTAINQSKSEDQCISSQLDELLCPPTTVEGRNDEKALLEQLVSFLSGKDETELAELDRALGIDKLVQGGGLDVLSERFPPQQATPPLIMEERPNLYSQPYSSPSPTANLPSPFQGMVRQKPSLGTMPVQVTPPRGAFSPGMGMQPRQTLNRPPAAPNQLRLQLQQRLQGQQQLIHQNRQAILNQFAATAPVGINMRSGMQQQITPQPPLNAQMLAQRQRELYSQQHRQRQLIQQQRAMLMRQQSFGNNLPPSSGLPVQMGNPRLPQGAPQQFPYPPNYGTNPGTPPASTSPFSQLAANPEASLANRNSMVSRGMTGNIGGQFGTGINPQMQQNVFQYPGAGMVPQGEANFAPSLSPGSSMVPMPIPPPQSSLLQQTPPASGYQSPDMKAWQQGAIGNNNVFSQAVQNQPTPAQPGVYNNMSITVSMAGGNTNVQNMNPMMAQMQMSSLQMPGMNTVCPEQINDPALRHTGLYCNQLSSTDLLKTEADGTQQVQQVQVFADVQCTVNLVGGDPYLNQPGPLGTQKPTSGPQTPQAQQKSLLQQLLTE
Luciferin 4-monooxygenase, sequence (P08659 whole entry): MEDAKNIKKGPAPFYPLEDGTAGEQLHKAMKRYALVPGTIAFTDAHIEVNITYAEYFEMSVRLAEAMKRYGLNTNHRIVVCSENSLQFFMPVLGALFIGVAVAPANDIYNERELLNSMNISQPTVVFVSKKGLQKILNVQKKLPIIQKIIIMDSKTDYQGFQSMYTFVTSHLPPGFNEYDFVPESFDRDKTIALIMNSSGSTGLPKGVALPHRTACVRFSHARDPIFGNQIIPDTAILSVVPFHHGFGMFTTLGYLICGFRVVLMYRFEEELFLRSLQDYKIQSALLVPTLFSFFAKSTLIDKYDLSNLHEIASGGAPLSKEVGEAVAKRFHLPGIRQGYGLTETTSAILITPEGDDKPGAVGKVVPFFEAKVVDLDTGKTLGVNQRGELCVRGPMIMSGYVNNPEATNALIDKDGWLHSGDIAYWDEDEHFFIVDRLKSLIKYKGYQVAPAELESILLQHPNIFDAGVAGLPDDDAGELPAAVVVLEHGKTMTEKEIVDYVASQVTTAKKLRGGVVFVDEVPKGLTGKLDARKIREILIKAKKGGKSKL

One may read the IC50 as the point on the concentration scale where inhibition reaches its midpoint. `COc1ccc(NC(=O)CSc2nccc(C)n2)cc1`: the half-inhibitory concentration (IC50) on Leucine aminopeptidase was 20.3 µM (active).
The EC50 is the concentration that produces a half-maximal response. In the case of `NC(=NOCc1ccc([N+](=O)[O-])cc1)c1ccccn1`, the IC50 in [1] is > 39.8 µM (not active); in [3], > 80 µM (inactive). Also, the concentration giving a half-maximal response (EC50) is 0.223 µM (active) in [2]; 0.143 µM (active) in experiment [4]; 0.201 µM (active) in experiment [5]; 9.46 µM (active) in experiment [6]; 7.95 µM (active) in experiment [7].
Consider `COc1ccc(S(=O)(=O)Nc2c(F)cccc2F)cc1`, for which the EC50 in experiment [8], in experiment [9] and in experiment [10] was > 79.4 µM (not active) each time.
`O=C1c2n[nH]c(-c3ccccc3O)c2C(c2ccc(F)cc2)N1Cc1ccco1` (stereo unspecified): the EC50 was 18.7 µM (active) in experiment [11] and 16.9 µM (active) in [12].
For the compound `CCOC(=O)Nc1c(O)ccc2oc(C)c(-c3ccccc3)c12`, on Leucine aminopeptidase, the IC50 was 17.3 µM (active).
The CC50 is the concentration that lowers cell viability or growth by half. `CCOc1ccc(S(=O)(=O)Nc2cc(Sc3nc[nH]n3)c3oc(=O)sc3c2)cc1`: the EC50 in experiment [11] was 13.8 µM (active); in experiment [12], 18.6 µM (active). Further, the CC50 in experiment [13] is 26.2 µM (active).
A word on the AC50: it is the concentration at which the activity in the assay is half-maximal. As to `O=S(=O)(CCSc1ccccn1)c1nc2ccccc2s1`, the EC50 was 8.47 µM (active) in [11], 9.21 µM (active) at Protein RecA and 6.03 µM (active) in experiment [12]. The AC50 in experiment [14] is 5.68 µM (active).
Consider `N#C/C(=C\c1cccs1)Sc1nc2ccccc2s1`, for which the results for the EC50 in experiment [11] and in experiment [12] were 16.3 µM (active) and 17.3 µM (active), respectively.
As to `COC(=O)CSc1nc2cc3c(cc2cc1C#N)OCO3`, the concentration for a half-maximal effect (EC50) in [8] is 5.17 µM (active); in [9], 7.25 µM (active); in experiment [10], 7.89 µM (active); in experiment [15] it was 0.176 µM (active).
For `N=C(CS(=O)(=O)c1ccccn1)NOC(=O)c1ccccc1Cl`, the EC50 in [16] was 5.85 µM (active); in experiment [17], 0.17 µM (active); in experiment [15] it was < 0.1 µM (active); in experiment [18] it was 0.769 µM (active); with H4, 10.7 µM (active); in experiment [19], 0.244 µM (active).
As for `Cc1cc(NC(=O)CN2C(=O)NC3(CCC(C)CC3)C2=O)no1` (stereo unspecified), the EC50 in experiment [8], in experiment [9] and in experiment [10] was > 79.4 µM (not active) throughout.
On to `O=C(Nc1ccccc1NC(=O)c1c(F)c(F)c(F)c(F)c1F)c1c(F)c(F)c(F)c(F)c1F`, for which the EC50 in experiment [11] was 17.1 µM (active); in experiment [12] it was 12.5 µM (active).
As for `Cc1nc(SCC(=O)Nc2ccc(F)cc2)c2oc3ccccc3c2n1`, the EC50 was 9.31 µM (active) in experiment [8], > 79.4 µM (not active) in [9] and > 79.4 µM (not active) in experiment [10].
Consider `COc1ccc(CC(=O)NCc2nnc(SCC(=O)Nc3cccc(F)c3)n2C)cc1`, for which the EC50 in experiment [8], in experiment [9] and in experiment [10] was > 79.4 µM (not active) throughout.
As to `CC1=NNC(=O)C1CC(=O)N/N=C/C(C)=C/c1ccccc1` (stereo unspecified), the IC50 at Leucine aminopeptidase was 52.8 µM (active).
Consider `Cc1ccc(NC(=O)ON=C2CCCC2)cc1`, for which the EC50 was 0.501 µM (active) in [16]; 0.777 µM (active) in [15]; 1.53 µM (active) in experiment [18]; > 120 µM (not active) in the experiment on H4; 0.547 µM (active) in experiment [19]. For the same compound, the IC50 in the experiment “cells” was 43.2 µM (active).
